Assay results taken from patent US20110053773A1, “METHODS OF IMPROVING NUTRITIONAL VALUE OF PLANTS” (UNIVERSITY OF TENNESSEE RESEARCH FOUNDATION, priority 2009, published 2011).

How the values were obtained:
[1] = test system: basil 'Genovese'; assay: Visual injury of basil after insecticide, fungicide, PGRs, safeners (Example 4)
Description: (§1) Greenhouse and laboratory studies were conducted to ascertain the tolerance and nutritional quality differences following postemergence applications of the insecticide chlorpyrifos, the fungicide chlorothalonil, the PGRs mepiquat-chloride and paclobutrazol, and the safeners napthalic anhydride and isoxadifen-ethyl on kale ‘Red Russian’ and basil ‘Genovese’. Visual injury was rated based on general phytotoxicity, chlorosis, and visual stunting and each measurement was based on a percent scale from 0 to 100 where 0 equals no visual response and 100 equals complete plant death. Kale and basil were both harvested approximately 4 weeks after treatments and plants were pooled over replicates for content analysis of crude protein, crude amino acid content, acid detergent fiber, neutral detergent fiber, total fatty acids, and/or key mineral content (including Na, Ca, P, Mg, K, Fe, Mn, Zn, and Cu). In addition, the amounts of key individual amino acids (aspartic acid, threonine, glutamic acid, proline, glycine, cysteine, valine, leucine, isoleucine, methionine, and lysine) and composite classifications of fatty acid (saturated fatty acids, monounsaturated fatty acids, polyunsaturated fatty acids) were also analyzed from these sub-samples for kale (Tables 10-14).

[2] = test system: basil 'Genovese'; assay: Content analysis of basil: protein, minerals (Example 4, Tables 10-11); assay type: in vivo; conditions: 28 DA-A
Description: as §1

[3] = test system: basil ‘Genovese’; assay: Yield, fresh weight of basil after insecticide, fungicide, PGRs and safeners (Example 4, Table 10); assay type: in vivo; conditions: DA-A, check 31.8
Description: as §1

[4] = test system: sweet corn (Zea mays var. rugosa) cultivar 'Incredible'; assay: Content analysis of sweet corn ears: crude protein, amino acids, detergent fiber, fatty acids, minerals (Example 1); assay type: in vivo; conditions: POST at b59 rates; every treatment incl. check also got atrazine 560 g ai/ha + COC 1% v/v; relative to treated check (atrazine), check=0
Description: Herbicide treatments were applied in a water carrier at 23 gallons of solution per acre on a field site near Knoxville, Tenn. and Painter, Va. Treatments include the following: 1) nicosulfuron at 35 g ai/ha (Accent); 2) mesotrione at 105 g ai/ha (Callisto); 3) nicosulfuron at 35 g ai/ha+mesotrione at 105 g ai/ha (Callisto+Accent); 4) tembotrione at 92 g ai/ha+isoxadifen-ethyl at 46 g ai/ha (Laudis); 5) topramezone at 15 g ai/ha (Impact); 6) nicosulfuron at 35 g ai/ha+isoxadifen-ethyl at 9 g ai/ha (Accent Q); 7) nicosulfuron at 35 g ai/ha+isoxadifen-ethyl at 9 g ai/ha+topramezone at 15 g ai/ha (Accent Q+Impact); 8) nicosulfuron 35 g ai/ha+isoxadifen-ethyl at 9 g ai/ha+mesotrione at 105 g ai/ha (Accent Q+Callisto); 9) treated check (atrazine or Aatrex). All treatments included a PRE application of atrazine plus metolachlor in order to maintain weed free conditions. In addition, all POST treatments (including the treated check) included atrazine at 560 g ai/ha and crop oil concentrate at 1% v/v. […] Sweet corn was harvested from the center two rows of each four row plot and weighed in the husk.

[5] = test system: sweet corn cultivars 'Merit', 'Temptation', 'Incredible'; assay: Kernel carotenoids of sweet corn after mesotrione and atrazine (Example 3); assay type: in vivo; design: Kernel carotenoids: Lutein / Kernel carotenoids: Zeaxanthin: unit not given here; conditions: mesotrione 105, atrazine 560 g ai/ha
Description: (§2) Studies were conducted in a field in Knoxville, Tenn. to ascertain the growth, stress tolerance and nutritional quality differences following postemergence applications of herbicides mesotrione and atrazine, alone and in mixtures together, on the young sweet corn cultivars: ‘Merit’ (yellow-kernel sensitive genotype), ‘Temptation’ (bicolor tolerant genotype), and ‘Incredible’ (yellow-kernel moderately sensitive genotype).
(§3) Herbicide treatments were applied as follows: 1) untreated control; 2) mesotrione (meso) at 105 g ai/ha EPOST; 3) mesotrione at 105+atrazine at 560 g ai/ha EPOST; 4) atrazine at 560 g ai/ha EPOST; 5) mesotrione at 105 g ai/ha LPOST; 6) mesotrione at 105+atrazine at 560 g ai/ha LPOST; and 7) atrazine at 560 g ai/ha LPOST. Visual ratings of plant growth were taken during season, and kernels for carotenoids were measured at harvest.

[6] = test system: sweet corn cultivars 'Merit', 'Temptation', 'Incredible'; assay: Visual leaf tissue bleaching of sweet corn (Example 3, Table 9); assay type: in vivo; conditions: mesotrione 105, atrazine 560 g ai/ha
Description: as §2, §3

[7] = 7 DA-A, rates g ai/ha: chlropyrifos 1120, chlorothalonil 2630, paclobutrazol 3.23, mepiquat-chloride 12.3, Isoxadifen 8, Napthalic anhydride 264, + NIS 0.25 % v/v
[8] = 7 DA-A, rates g ai/ha: chlropyrifos 3370, chlorothalonil 7900, paclobutrazol 9.7, mepiquat-chloride 37, Isoxadifen 16, Napthalic anhydride 527, + NIS 0.25 % v/v
[9] = 14 DA-A, rates g ai/ha: chlropyrifos 1120, chlorothalonil 2630, paclobutrazol 3.23, mepiquat-chloride 12.3, Isoxadifen 8, Napthalic anhydride 264, + NIS 0.25 % v/v
[10] = 14 DA-A, rates g ai/ha: chlropyrifos 3370, chlorothalonil 7900, paclobutrazol 9.7, mepiquat-chloride 37, Isoxadifen 16, Napthalic anhydride 527, + NIS 0.25 % v/v
[11] = 28 DA-A, rates g ai/ha: chlropyrifos 1120, chlorothalonil 2630, paclobutrazol 3.23, mepiquat-chloride 12.3, Isoxadifen 8, Napthalic anhydride 264, + NIS 0.25 % v/v
[12] = 28 DA-A, rates g ai/ha: chlropyrifos 3370, chlorothalonil 7900, paclobutrazol 9.7, mepiquat-chloride 37, Isoxadifen 16, Napthalic anhydride 527, + NIS 0.25 % v/v
[13] = rates g ai/ha: chlroprifos 3370, chlorothalonil 7900, paclobutrazol 9.7, mepiquat-chloride 37, Isoxadifen 16, Napthalic anhydride 527, + NIS 0.25 % v/v
[14] = rates g ai/ha: chlropyrifos 1120, chlorothalonil 2630, paclobutrazol 3.23, mepiquat-chloride 12.3, Isoxadifen 8, Napthalic anhydride 264, + NIS 0.25 % v/v
[15] = 'Incredible' moderately sensitive genotype, EPOST
[16] = 'Incredible' moderately sensitive genotype, LPOST
[17] = 'Merit' sensitive genotype, EPOST
[18] = 'Merit' sensitive genotype, LPOST

O=C1OC(=O)c2cccc3cccc1c23 [napthalic anhydride]
Phytotoxicity Chlorosis [1, 7]: 0%
Phytotoxicity General [1, 7]: 5%
Phytotoxicity Stunting [1, 7]: 0%
Phytotoxicity Chlorosis [1, 8]: 2%
Phytotoxicity General [1, 8]: 7%
Phytotoxicity Stunting [1, 8]: 5%
Phytotoxicity Chlorosis [1, 9]: 3%
Phytotoxicity General [1, 9]: 7%
Phytotoxicity Stunting [1, 9]: 0%
Phytotoxicity Chlorosis [1, 10]: 2%
Phytotoxicity General [1, 10]: 10%
Phytotoxicity Stunting [1, 10]: 7%
Phytotoxicity Chlorosis [1, 11]: 2%
Phytotoxicity General [1, 11]: 5%
Phytotoxicity Stunting [1, 11]: 0%
Phytotoxicity Chlorosis [1, 12]: 2%
Phytotoxicity General [1, 12]: 3%
Phytotoxicity Stunting [1, 12]: 7%
ADF, Percent Increase Over the Untreated Check (on a % dry matter basis) [2, 13]: 4 % check
Calcium, Percent Increase Over the Untreated Check (on a % dry matter basis) [2, 13]: −8 % check
Copper, Percent Increase Over the Untreated Check (on a % dry matter basis) [2, 13]: −17 % check
Iron, Percent Increase Over the Untreated Check (on a % dry matter basis) [2, 13]: 0 % check
Magnesium, Percent Increase Over the Untreated Check (on a % dry matter basis) [2, 13]: −6 % check
Manganese, Percent Increase Over the Untreated Check (on a % dry matter basis) [2, 13]: −16 % check
NDF, Percent Increase Over the Untreated Check (on a % dry matter basis) [2, 13]: 1 % check
Phosphorous, Percent Increase Over the Untreated Check (on a % dry matter basis) [2, 13]: −9 % check
Potassium, Percent Increase Over the Untreated Check (on a % dry matter basis) [2, 13]: −23 % check
Protein, Percent Increase Over the Untreated Check (on a % dry matter basis) [2, 13]: 3 % check
Sodium, Percent Increase Over the Untreated Check (on a % dry matter basis) [2, 13]: −8 % check
Soluble protein, Percent Increase Over the Untreated Check (on a % dry matter basis) [2, 13]: 31 % check
Zinc, Percent Increase Over the Untreated Check (on a % dry matter basis) [2, 13]: −13 % check
ADF, Percent Increase Over the Untreated Check (on a % dry matter basis) [2, 14]: 13 % check
Calcium, Percent Increase Over the Untreated Check (on a % dry matter basis) [2, 14]: 2 % check
Copper, Percent Increase Over the Untreated Check (on a % dry matter basis) [2, 14]: 0 % check
Iron, Percent Increase Over the Untreated Check (on a % dry matter basis) [2, 14]: 14 % check
Magnesium, Percent Increase Over the Untreated Check (on a % dry matter basis) [2, 14]: 12 % check
Manganese, Percent Increase Over the Untreated Check (on a % dry matter basis) [2, 14]: 37 % check
NDF, Percent Increase Over the Untreated Check (on a % dry matter basis) [2, 14]: 2 % check
Phosphorous, Percent Increase Over the Untreated Check (on a % dry matter basis) [2, 14]: 22 % check
Potassium, Percent Increase Over the Untreated Check (on a % dry matter basis) [2, 14]: −4 % check
Protein, Percent Increase Over the Untreated Check (on a % dry matter basis) [2, 14]: 32 % check
Sodium, Percent Increase Over the Untreated Check (on a % dry matter basis) [2, 14]: 33 % check
Soluble protein, Percent Increase Over the Untreated Check (on a % dry matter basis) [2, 14]: 4 % check
Zinc, Percent Increase Over the Untreated Check (on a % dry matter basis) [2, 14]: 47 % check
Yield Fresh weight [3, 14]: 41.5 grams
Yield Fresh weight ([3]; rates g ai/ha: chlropyrifos 3370, chlorothalonil 7900, paclobutrazol 9.7, mepiquat-chloride 37, Isoxadifen 16, Napthalic anhydride 527, + NIS 0.25 % v/v): 24.5 grams

CCNc1nc(Cl)nc(NC(C)C)n1 [Atrazine*AATREX, atrazine]
Acid DF [4]: 0 % of check
Alanine [4]: 0 % of check
Amino Acid [4]: 0 % of check
Aspartic ac [4]: 0 % of check
Cysteine [4]: 0 % of check
Glutamic ac [4]: 0 % of check
Glycine [4]: 0 % of check
Isoleucine [4]: 0 % of check
Leucine [4]: 0 % of check
Lysine [4]: 0 % of check
Methionine [4]: 0 % of check
Neutral DF [4]: 0 % of check
Proline [4]: 0 % of check
Protein [4]: 0 % of check
Threonine [4]: 0 % of check
Valine [4]: 0 % of check
calcium [4]: 0 % of check
copper [4]: 0 % of check
iron [4]: 0 % of check
magnesium [4]: 0 % of check
manganese [4]: 0 % of check
mon fattyac [4]: 0 % of check
phosphorous [4]: 0 % of check
polyfattyac [4]: 0 % of check
potassium [4]: 0 % of check
sat fattyac [4]: 0 % of check
sodium [4]: 0 % of check
tot fattyac [4]: 0 % of check
zinc [4]: 0 % of check
Lutein % change from untreated control [5, 15]: +7.6%
Zeaxanthin % change from untreated control [5, 15]: −0.0%
Kernel carotenoids: Lutein ([5]; 'Incredible' moderately sensitive genotype, EPOST, untreated 0.328): 0.353
Kernel carotenoids: Zeaxanthin ([5]; 'Incredible' moderately sensitive genotype, EPOST, untreated 0.448): 0.447
Lutein % change from untreated control [5, 16]: +6.0%
Zeaxanthin % change from untreated control [5, 16]: +1.3%
Kernel carotenoids: Lutein ([5]; 'Incredible' moderately sensitive genotype, LPOST, untreated 0.328): 0.347
Kernel carotenoids: Zeaxanthin ([5]; 'Incredible' moderately sensitive genotype, LPOST, untreated 0.448): 0.454
Kernel carotenoids: Lutein [5, 17]: 0.692
Lutein % change from untreated control [5, 17]: +9.5%
Zeaxanthin % change from untreated control [5, 17]: +10.8%
Kernel carotenoids: Zeaxanthin ([5]; 'Merit' sensitive genotype, EPOST, untreated 0.509): 0.564
Kernel carotenoids: Lutein [5, 18]: 0.664
Lutein % change from untreated control [5, 18]: +5.1%
Zeaxanthin % change from untreated control [5, 18]: +8.1%
Kernel carotenoids: Zeaxanthin ([5]; 'Merit' sensitive genotype, LPOST, untreated 0.509): 0.550
Leaf Tissue Visual Bleaching (%) ([6]; ‘Incredible’, 7 DAT, EPOST): 13%
Leaf Tissue Visual Bleaching (%) ([6]; ‘Incredible’, 7 DAT, LPOST): 0%
Leaf Tissue Visual Bleaching (%) ([6]; ‘Incredible’, 14 DAT, EPOST): 13%
Leaf Tissue Visual Bleaching (%) ([6]; ‘Incredible’, 14 DAT, LPOST): 0%
Leaf Tissue Visual Bleaching (%) ([6]; ‘Incredible’, 21 DAT, EPOST): 0%
Leaf Tissue Visual Bleaching (%) ([6]; ‘Incredible’, 21 DAT, LPOST): 0%
Leaf Tissue Visual Bleaching (%) ([6]; ‘Merit’, 7 DAT, EPOST): 3%
Leaf Tissue Visual Bleaching (%) ([6]; ‘Merit’, 7 DAT, LPOST): 0%
Leaf Tissue Visual Bleaching (%) ([6]; ‘Merit’, 14 DAT, EPOST): 2%
Leaf Tissue Visual Bleaching (%) ([6]; ‘Merit’, 14 DAT, LPOST): 0%
Leaf Tissue Visual Bleaching (%) ([6]; ‘Merit’, 21 DAT, EPOST): 0%
Leaf Tissue Visual Bleaching (%) ([6]; ‘Merit’, 21 DAT, LPOST): 0%
